The text below walks through data of patent publication US20130090280A1, “CLEANING COMPOSITIONS AND METHODS” (HONEYWELL INTERNATIONAL INC., priority 2011, published 2013).

Like-named read-outs stand apart in the source and are kept apart here.

Data set [1] in a line: selected physical properties of solvents. The text has this: In the table Perc, is used as an abbreviation for perchloroethylene.
Data set [2] can be described thus: miscibility test, equal parts by weight of solvent and oils, visual observation. Type of data set: physicochemical. The text has this: Applicants compared the solubility of various materials which may be considered as soils to be cleaned in 1233zd(E) in Table 3. […] In all cases, the solvent looked clear and the mixtures are reported as miscible below. This is an initial mode of testing to check how well the solvent performs in dissolving the soils.

A short description of data set [3]: chemical stability, reflux with metals and moisture, ion chromatography of aqueous wash. Type of data set: physicochemical. The text has this: The chemical stability of the compound 1233zd(E) by itself and also in the presence of water, metals, flux is another important factor to be considered in the identification of a successful solvent. […] This test continued for 2 weeks.
Solvent was boiled with water alone or in presence of various metal coupons such as stainless steel 304, cold-rolled steel, galvanized steel, copper, and aluminum. The coupons were partially immersed in the solvent which allowed the state of the coupons at the interface of liquid and vapor to be viewed. […] After the test, coupons were observed visually for rusting or pitting and the remaining solvent in the flask was examined for breakdown products including chlorides and fluorides which are good indicators of breakdown of solvents.

[4] abbreviates: 0.2% moisture added, reflux 100 hours, AL.
[5] abbreviates: 0.2% moisture added, reflux 100 hours, CRS.
[6] abbreviates: 0.2% moisture added, reflux 100 hours, CU.
[7] abbreviates: 0.2% moisture added, reflux 100 hours, GAL.
The mark [8] stands for this setting: 0.2% moisture added, reflux 100 hours, S.S 304.
Where [9] appears, read: 0.2% moisture added, reflux 100 hours, no metal.
The mark [10] stands for this setting: no additional moisture, reflux, AL.
Setting [11] is: no additional moisture, reflux, CRS.
Where [12] appears, read: no additional moisture, reflux, CU.
Where [13] appears, read: no additional moisture, reflux, GAL.
Where [14] appears, read: no additional moisture, reflux, S.S 304.
[15] abbreviates: no additional moisture, reflux, no metal.
Where [16] appears, read: no additional moisture, virgin/no reflux.

For `FC(F)(F)/C=C/Cl` [1233zd(E), trans-1-chloro-3,3,3-trifluoropropene], the “Boiling Point” value in data set [1] is 19.52 °C. Besides, the “Flash Point” value in data set [1] is recorded as “None”. Besides, the Kauri-Butanol value in data set [1] is 25. The flammability result in data set [1] is given as “completely non-flammable”. Moreover, the “Vapor Pressure” value in data set [1] (@20 C.) is 15.23 psi. Also, the “Heat of Vaporization” value in data set [1] (at bp) was found to be 193.9 kJ/kg. Further, the “Soil Dissolution in solvent” value in data set [2] (Mineral Oil), in data set [2] (Refrigerant oil), in data set [2] (Silicone Lubricant) and in data set [2] (Solder Flux) was “Miscible” in each case. Also, the Acetate in data set [3] (setting [4]) was found to be 0.04 ppm; in data set [3] (setting [5]), 0.07 ppm; in data set [3] (setting [6]), 0.09 ppm; in data set [3] (setting [7]), 0.04 ppm; in data set [3] (setting [8]) it was 0.04 ppm; in data set [3] (setting [9]) it was 0.08 ppm. The Acetate in data set [3] (setting [10]) is 0.12 ppm; in data set [3] (setting [11]), 0.08 ppm; in data set [3] (setting [12]) it was 0.12 ppm; in data set [3] (setting [13]) it was 0.12 ppm; in data set [3] (setting [14]), 0.10 ppm; in data set [3] (setting [15]), 0.13 ppm. The molecule further gave an Acetate in data set [3] (setting [16]) of 0.13 ppm. Moreover, the “Br^−” value in data set [3] (setting [4]), in data set [3] (setting [5]), in data set [3] (setting [6]), in data set [3] (setting [7]), in data set [3] (setting [8]) and in data set [3] (setting [9]) was under 0.05 ppm throughout. Besides, the “Br^−” value in data set [3] (setting [10]), in data set [3] (setting [11]), in data set [3] (setting [12]), in data set [3] (setting [13]), in data set [3] (setting [14]) and in data set [3] (setting [15]) was under 0.05 ppm throughout. In addition, the “Br^−” value in data set [3] (setting [16]) is reported as under 0.05 ppm. Besides, the “Cl^−” value in data set [3] (setting [4]) is 0.08 ppm; in data set [3] (setting [5]), 0.07 ppm; in data set [3] (setting [6]), 0.08 ppm; in data set [3] (setting [7]) it was 0.07 ppm; in data set [3] (setting [8]), 0.07 ppm; in data set [3] (setting [9]), 0.08 ppm. For the same molecule, the “Cl^−” value was determined as 0.14 ppm in data set [3] (setting [10]); 0.12 ppm in data set [3] (setting [11]); 0.9 ppm in data set [3] (setting [12]); 0.12 ppm in data set [3] (setting [13]); 0.11 ppm in data set [3] (setting [14]); 0.16 ppm in data set [3] (setting [15]). Moreover, in data set [3] (setting [16]), the “Cl^−” value came out at 0.11 ppm. For the same molecule, the “F^−” value in data set [3] (setting [4]) worked out at 0.05 ppm; in data set [3] (setting [5]), 0.05 ppm; in data set [3] (setting [6]), 0.06 ppm; in data set [3] (setting [7]), 0.05 ppm; in data set [3] (setting [8]), 0.06 ppm; in data set [3] (setting [9]), 0.05 ppm. For the same molecule, the “F^−” value amounted to 0.09 ppm in data set [3] (setting [10]); 0.08 ppm in data set [3] (setting [11]); 0.09 ppm in data set [3] (setting [12]); 0.08 ppm in data set [3] (setting [13]); 0.08 ppm in data set [3] (setting [14]); 0.09 ppm in data set [3] (setting [15]). Besides, the “F^−” value in data set [3] (setting [16]) is reported as 0.08 ppm. The Formate is on record as 0.10 ppm in data set [3] (setting [4]); 0.14 ppm in data set [3] (setting [5]); 0.16 ppm in data set [3] (setting [6]); 0.08 ppm in data set [3] (setting [7]); 0.08 ppm in data set [3] (setting [8]); 0.12 ppm in data set [3] (setting [9]). Besides, the Formate is 0.26 ppm in data set [3] (setting [10]); 0.17 ppm in data set [3] (setting [11]); 0.10 ppm in data set [3] (setting [12]); 0.22 ppm in data set [3] (setting [13]); 0.12 ppm in data set [3] (setting [14]); 0.19 ppm in data set [3] (setting [15]). Further, the Formate in data set [3] (setting [16]) turned out to be 0.35 ppm. The “NO3^−” value in data set [3] (setting [4]) was under 0.05 ppm; in data set [3] (setting [5]), 0.10 ppm; in data set [3] (setting [6]) it was 0.15 ppm; in data set [3] (setting [7]) it was under 0.05 ppm; in data set [3] (setting [8]), under 0.05 ppm; in data set [3] (setting [9]), under 0.05 ppm. Moreover, the “NO3^−” value in data set [3] (setting [10]) is on record as 0.19 ppm; in data set [3] (setting [11]), 0.06 ppm; in data set [3] (setting [12]), 0.12 ppm; in data set [3] (setting [13]) it was 0.14 ppm; in data set [3] (setting [14]) it was 0.06 ppm; in data set [3] (setting [15]), 0.12 ppm. Moreover, in data set [3] (setting [16]), the “NO3^−” value is 0.06 ppm. For the same molecule, the “PO4^−3” value in data set [3] (setting [4]), in data set [3] (setting [5]), in data set [3] (setting [6]), in data set [3] (setting [7]), in data set [3] (setting [8]) and in data set [3] (setting [9]) was under 0.10 ppm throughout. Also, the “PO4^−3” value in data set [3] (setting [10]), in data set [3] (setting [11]), in data set [3] (setting [12]), in data set [3] (setting [13]), in data set [3] (setting [14]) and in data set [3] (setting [15]) was under 0.10 ppm in each case. In data set [3] (setting [16]), the “PO4^−3” value is given as under 0.10 ppm. The “SO4^−2” value is 0.18 ppm in data set [3] (setting [4]); 0.26 ppm in data set [3] (setting [5]); 0.31 ppm in data set [3] (setting [6]); 0.19 ppm in data set [3] (setting [7]); 0.18 ppm in data set [3] (setting [8]); 0.23 ppm in data set [3] (setting [9]). Moreover, the “SO4^−2” value is recorded as 0.45 ppm in data set [3] (setting [10]); 0.17 ppm in data set [3] (setting [11]); 0.41 ppm in data set [3] (setting [12]); 0.30 ppm in data set [3] (setting [13]); 0.18 ppm in data set [3] (setting [14]); 0.29 ppm in data set [3] (setting [15]). In addition, the “SO4^−2” value in data set [3] (setting [16]) was determined as 0.21 ppm. In data set [3] (reflux with individual metals and added moisture (0.20% H2O), 100 hours), the “breakdown products in solvent after reflux” value is “no increase of chlorides and fluorides in the solvent over the baseline and no other degradation products”.

Take `FC(F)(Cl)C(F)(Cl)Cl` [CFC-113, 1,1,2-trichlorotrifluoroethane]: in data set [1], the “Boiling Point” value was 47.6 °C, the “Flash Point” value is “None”, the Kauri-Butanol value is reported as 32 and the “Vapor Pressure” value was determined as 5.27 psi. The “Heat of Vaporization” value in data set [1] (at bp) was determined as 144.7 kJ/kg.

In the case of `FC(C(F)C(F)(F)C(F)(F)F)C(F)(F)F` (stereo not drawn) [HFC 43-10mee], in data set [1], the “Boiling Point” value stood at 54 °C, the “Flash Point” value was “None” and the “Vapor Pressure” value is on record as 4.4 psi. The “Heat of Vaporization” value in data set [1] (at bp) is 129.7 kJ/kg.

`ClC(Cl)=C(Cl)Cl` [Perc, perchloroethylene]: in data set [1], the “Boiling Point” value was 121.3 °C and the “Flash Point” value is listed as “None”. Also, the “Vapor Pressure” value in data set [1] (@20 C.) turned out to be 0.27 psi. In data set [1] (at bp), the “Heat of Vaporization” value turned out to be 207 kJ/kg.

Regarding `CCCBr` [n-Propyl Bromide, n-propyl bromide, reference compound], the “Boiling Point” value in data set [1] was 71 °C. The “Flash Point” value in data set [1] was “None”. In data set [1] (@20 C.), the “Vapor Pressure” value came to 2.1 psi. Moreover, in data set [1] (at bp), the “Heat of Vaporization” value is 246 kJ/kg. Also, the “Soil Dissolution in solvent” value in data set [2] (Mineral Oil), in data set [2] (Refrigerant oil), in data set [2] (Silicone Lubricant) and in data set [2] (Solder Flux) was “Miscible” in each case.

Consider `O` [water], for which, in data set [1], the surface tension is given as 72.1 dynes/cm.

In the case of dichloropentafluoropropane [HCFC-225], in data set [1], the “Boiling Point” value came out at 54 °C and the “Flash Point” value was “None”. Further, the “Vapor Pressure” value in data set [1] (@20 C.) is recorded as 5.6 psi. Also, in data set [1] (@25° C.), the “Heat of Vaporization” value is 145@25 °C kJ/kg.
